Data as given in patent US5691373A, “Nonpeptide endothelin antagonists I” (Warner-Lambert Company, priority 1995, dated 1997).

What was measured:
[1] = target: T1, ETB (Rattus norvegicus, UniProt P21451)
T1 sequence (P21451 27-442): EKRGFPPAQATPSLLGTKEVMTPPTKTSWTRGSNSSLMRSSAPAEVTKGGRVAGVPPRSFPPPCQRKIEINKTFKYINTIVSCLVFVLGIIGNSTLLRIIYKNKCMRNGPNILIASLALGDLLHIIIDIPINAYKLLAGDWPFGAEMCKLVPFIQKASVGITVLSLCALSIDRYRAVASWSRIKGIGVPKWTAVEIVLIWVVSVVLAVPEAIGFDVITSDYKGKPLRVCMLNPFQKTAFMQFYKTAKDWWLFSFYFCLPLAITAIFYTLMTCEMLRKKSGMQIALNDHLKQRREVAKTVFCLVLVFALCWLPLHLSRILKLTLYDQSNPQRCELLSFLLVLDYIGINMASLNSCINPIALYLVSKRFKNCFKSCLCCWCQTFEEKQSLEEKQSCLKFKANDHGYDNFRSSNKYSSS
Description: The tissue is made up of 20 mM tris(hydroxymethyl)aminomethane hydrochloride (Trizma) buffer, 2 mM ethylenediaminetetra acetate, 100 μM phenylmethylsulfonyl fluoride.
First, thaw one aliquot of frozen rat cerebellar membranes (2 mg protein in 0.5 mL). Next, add 0.5 mL membrane aliquot to 4.5 mL cold tissue buffer, polytron at 7,500 revolutions per minute for 10 seconds. Finally, dilute tissue suspension 1/100 (0.1 mL suspension+9.9 mL tissue buffer), polytron again, and place ice.
Mix in 150 μL of tissue to each tube, vortex briefly, then tap to force all liquids to bottom (total assay volume=250 μL). Then place the tubes in a 37° C. water bath for 2 hours.
Add 2.5 mL cold wash buffer (50 mM Trizma buffer) to each tube, filter, and then wash tube with additional 2.5 mL wash buffer and add to filter. Finally, wash filters with an additional 2.5 mL of cold wash buffer.
Count filters for radioactivity in gamma counter.

[2] = target: T2, ETA (Oryctolagus cuniculus, UniProt A5A8K3); details: ERBA-A IC50, [125I]-ET-1, rabbit renal artery vascular smooth muscle cells
T2 sequence (A5A8K3 21-427): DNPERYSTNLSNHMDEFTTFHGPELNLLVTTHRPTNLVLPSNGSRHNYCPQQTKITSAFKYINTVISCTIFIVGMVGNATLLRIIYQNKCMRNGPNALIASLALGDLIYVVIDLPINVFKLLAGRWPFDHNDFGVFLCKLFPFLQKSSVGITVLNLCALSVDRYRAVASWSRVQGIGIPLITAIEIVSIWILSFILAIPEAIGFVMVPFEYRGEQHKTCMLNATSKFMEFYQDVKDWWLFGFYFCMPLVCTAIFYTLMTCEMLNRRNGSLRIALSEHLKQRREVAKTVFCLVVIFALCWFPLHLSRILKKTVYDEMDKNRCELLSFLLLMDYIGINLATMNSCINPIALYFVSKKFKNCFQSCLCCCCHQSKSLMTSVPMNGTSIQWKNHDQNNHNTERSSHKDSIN

[3] = target: T3, human ETB receptor (Homo sapiens, UniProt P24530); test: ERBA-B: [125I]-ET-1 binding, recombinant human ETB receptor expressed in CHO-K1 cells; details: human cloned ETB receptor, read-out: ERBA-B IC50, human cloned receptor data
T3 construct: expressed in transfected cells; host or cells: CHO-K1 cells, pRc-CMW (so in the source) expression vector, electroporation; membranes used
T3 sequence (P24530 27-442): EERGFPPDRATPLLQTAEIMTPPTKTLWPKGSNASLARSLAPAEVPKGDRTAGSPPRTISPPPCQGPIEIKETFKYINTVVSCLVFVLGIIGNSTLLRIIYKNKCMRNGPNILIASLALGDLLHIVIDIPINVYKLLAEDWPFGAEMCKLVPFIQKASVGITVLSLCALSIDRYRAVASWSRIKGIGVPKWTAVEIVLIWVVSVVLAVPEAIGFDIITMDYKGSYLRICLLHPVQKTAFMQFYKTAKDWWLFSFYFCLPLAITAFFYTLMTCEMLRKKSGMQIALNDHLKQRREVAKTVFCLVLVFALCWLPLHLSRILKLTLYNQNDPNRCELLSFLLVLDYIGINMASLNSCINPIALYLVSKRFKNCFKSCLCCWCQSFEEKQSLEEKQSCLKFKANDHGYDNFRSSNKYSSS

Row | SMILES | inhibition at 10 µM ([1]; read-out: ERBA-B % inhibition) | IC50 [1] | IC50 [2] | IC50 [3]
1 | CC(C)c1ccc(C2=C(Cc3cccc4ccccc34)C(O)(c3ccc(Cl)cc3)OC2=O)cc1 (racemic) [Example 40, 2(5H)-Furanone, 5-(4-chlorophenyl)-5-hydroxy-3-[4-(1-methylethyl)phenyl]-4-(1-naphthalenylmethyl)-, (±)-] | 22% | – | – | –
2 | CN(C)c1ccc(C2=C(Cc3ccc4c(c3)OCO4)C(O)(c3ccc(Cl)cc3)OC2=O)cc1 (racemic) [Example 54, 2(5H)-Furanone, 4-(1,3-benzodioxol-5-ylmethyl)-5-(4-chlorophenyl)-3-[4-(dimethylamino)phenyl]-5-hydroxy-, (±)-] | – | 18000 nM | – | –
3 | CN(C)c1ccc(CC2=C(c3ccc(N(C)C)cc3)C(=O)OC2(O)c2ccc(Cl)cc2)cc1 (racemic) [Example 55, 2(5H)-Furanone, 5-(4-chlorophenyl)-3-[4-(dimethylamino)phenyl]-4-[[4-(dimethylamino)phenyl]methyl]-5-hydroxy-, (±)-] | – | 21000 nM | – | –
4 | COc1ccc(C2=C(Cc3ccc(N(C)C)cc3)C(O)(c3ccc(Cl)cc3)OC2=O)cc1OC (racemic) [Example 71, 2(5H)-Furanone, 5-(4-Chlorophenyl)-3-(3,4-dimethoxyphenyl)-4-[[4-(dimethylamino)phenyl]methyl]-5-hydroxy-, (±)-] | – | 4200 nM | – | –
5 | COc1ccc(C(=O)/C(Cc2ccccc2)=C(\C(=O)O)c2cc(OC)c3c(c2)OCO3)cc1 [Example 368, Sodium 3-Benzyl-2-(7-methoxy-benzo[1,3]dioxol-5-yl)-4-(4-methoxy-phenyl)-4-oxo-but-2-enoate] | – | – | < 25 nM | 960 nM
6 | COc1ccc(C(=O)/C(Cc2ccccc2)=C(\C(=O)O)c2cc(OC)c3c(c2)OCO3)cc1C [Example 370, Sodium 3-Benzyl-2-(7-methoxy-benzo[1,3]dioxol-5-yl)-4-(4-methoxy-3-methyl-phenyl)-4-oxo-but-2-enoate] | – | – | 10 nM | 1530 nM
7 | COc1ccc(C(=O)/C(Cc2cc(OC)c(OC)c(OC)c2)=C(\C(=O)O)c2cc(OC)c3c(c2)OCO3)cc1 [Example 371] | – | – | 0.39 nM | 328 nM
8 | COc1ccc(C/C(C(=O)c2ccc(OC)cc2)=C(/C(=O)O)c2ccc3c(c2)OCO3)cc1 [Example 380, Sodium2-Benzo[1,3]dioxol-5-yl-3-(4-methoxy-benzyl)-4-(4-methoxy-phenyl)-4-o xo-but-2-enoate] | – | – | 24 nM | 2000 nM
9 | CCCCCCCCOc1ccc(CC2=C(c3cc(OC)cc(OC)c3)C(=O)OC2(O)c2ccc(OC)cc2)cc1OC (stereo not drawn) [Example 381, 3-(3,5-Dimethoxy-phenyl)-5-hydroxy-4-(3-methoxy-4-octyloxy-benzyl)-5-(4-methoxy-phenyl)-5H-furan-2-one] | – | – | 68 nM | 570 nM
10 | COc1cc(OC)cc(C2=C(Cc3ccc(NC(C)=O)cc3)C(O)(c3ccc(OC)c(C)c3)OC2=O)c1 (stereo not drawn) [Example 385, N-{4-[4-(3,5-Dimethoxy-phenyl)-2-hydroxy-2-(4-methoxy-3-methyl-phenyl)-5-oxo-2,5-dihydro-furan-3-ylmethyl]-phenyl}-acetamide] | – | – | 0.8 nM | 690 nM
11 | COc1cc(OC)cc(C2=C(Cc3ccc(OC(C)C)c(OC)c3)C(O)(c3ccc(OC)c(C)c3)OC2=O)c1 (stereo not drawn) [Example 390, 3-(3,5-Dimethoxy-phenyl)-5-hydroxy-4-(4-isopropoxy-3-methoxy-benzyl)-5-(4-methoxy-3-methyl-phenyl)-5H-furan-2-one] | – | – | 7 nM | 820 nM
12 | COc1ccc(C2(O)OC(=O)C(c3ccc4c(c3)OCO4)=C2Cc2ccc(OC(C)C)c(OC)c2)cc1C (stereo not drawn) [Example 391, 3-Benzo[1,3]dioxol-5-yl-5-hydroxy-4-(4-isopropoxy-3-methoxy-benzyl)-5-(4-methoxy-3-methyl-phenyl)-5H-furan-2-one] | – | – | 1.8 nM | > 250 nM
13 | COc1cc(OC)cc(/C(C(=O)O)=C(\Cc2c(OC)cc(OC)cc2OC)C(=O)c2ccc(OC)c(C)c2)c1 [Example 392] | – | – | 3800 nM | 14000 nM
14 | CCCCCCCCOc1ccc(CC2=C(c3cc(OC)cc(OC)c3)C(=O)OC2(O)c2ccc(OC)c(C)c2)cc1OC (stereo not drawn) [Example 393, 3-(3,5-Dimethoxy-phenyl)-5-hydroxy-5-(4-methoxy-3-methyl-phenyl)-4-(3-methoxy-4-octyloxy-benzyl)-5H-furan-2-one] | – | – | 240 nM | 830 nM
15 | CCCCCCCCOc1ccc(CC2=C(c3ccc4c(c3)OCO4)C(=O)OC2(O)c2ccc(OC)c(C)c2)cc1OC (stereo not drawn) [Example 394, 3-Benzo[1,3]dioxol-5-yl-5-hydroxy-5-(4-methoxy-3-methyl-phenyl)-4-(3-methoxy-4-octyloxy-benzyl)-5H-furan-2-one] | – | – | 68 nM | 420 nM
16 | COc1ccc(C2(O)OC(=O)C(c3ccc4c(c3)OCO4)=C2Cc2ccc(OC(C)C)c(C)c2)cc1C (stereo not drawn) [Example 395, 3-Benzo[1,3]dioxol-5-yl-5-hydroxy-4-(4-isopropoxy-3-methyl-benzyl)-5-(4-methoxy-3-methyl-phenyl)-5H-furan-2-one] | – | – | 13 nM | 840 nM
17 | COc1cc(OC)cc(C2=C(Cc3ccc(OC(C)C)c(C)c3)C(O)(c3ccc(OC)c(C)c3)OC2=O)c1 (stereo not drawn) [Example 396, 3-(3,5-Dimethoxy-phenyl)-5-hydroxy-4-(4-isopropoxy-3-methyl-benzyl)-5-(4-methoxy-3-methyl-phenyl)-5H-furan-2-one] | – | – | 47 nM | 1200 nM
18 | COc1ccc(C2(O)OC(=O)C(c3ccc4c(c3)OCO4)=C2Cc2ccc(OC3CCCCC3)c(C)c2)cc1 (stereo not drawn) [Example 397, 3-Benzo[1,3]dioxol-5-yl-4-(4-cyclohexyloxy-3-methylbenzyl)-5-hydroxy-5-(4-methoxy-phenyl)-5H-furan-2-one] | – | – | 610 nM | 2600 nM
19 | COc1ccc(C2(O)OC(=O)C(c3ccc4c(c3)OCO4)=C2CC2CCCc3ccccc32)cc1 (stereo not drawn) [Example 398, 3-Benzo[1,3]dioxol-5-yl-5-hydroxy-5-(4-methoxy-phenyl)-4-(1,2,3,4-tetrahydro-naphthalen-1-ylmethyl)-5H-furan-2-one] | – | – | 830 nM | > 2500 nM
20 | COC(=O)C1CCCC(CC2=C(c3ccc4c(c3)OCO4)C(=O)OC2(O)c2ccc(OC)cc2)C1 (stereo not drawn) [Example 399, 3-[4-Benzo[1,3]dioxol-5-yl-2-hydroxy-2-(4-methoxyphenyl)-5-oxo-2,5-dihydro-furan-3-ylmethyl]-cyclohexanecarboxylic acid methyl ester] | – | – | 20 nM | 1100 nM
21 | COc1ccc(C2(O)OC(=O)C(c3ccc4c(c3)OCO4)=C2CC2CC2)cc1 (stereo not drawn) [Example 400, 3-Benzo[1,3]dioxol-5-yl-4-cyclopropylmethyl-5-hydroxy-5-(4-methoxy-phenyl)-5H-furan-2-one] | – | – | 39 nM | > 2500 nM
22 | COc1ccc(C2(O)OC(=O)C(c3ccc4c(c3)OCO4)=C2CC2CCCC(C(=O)O)C2)cc1 (stereo not drawn) [Example 403, 3-[4-Benzo[1,3]dioxol-5-yl-2-hydroxy-2-(4-methoxyphenyl)-5-oxo-2,5-dihydro-furan-3-ylmethyl]-cyclohexanecarboxylic acid] | – | – | 250 nM | 3000 nM
23 | COc1ccc(C2(O)OC(=O)C(c3ccc4c(c3)OCO4)=C2Cc2ccc(C(C)C)cc2)cc1 (stereo not drawn) [Example 404, 3-Benzo[1,3]dioxol-5-yl-5-hydroxy-4-(4-isopropylbenzyl)-5-(4-methoxy-phenyl)-5H-furan-2-one] | – | – | 58 nM | > 2500 nM
